In patent US9364471B2, “Compositions and methods of treating retinal disease” (ALDEYRA THERAPEUTICS, INC., priority 2005, dated 2016):

Legend:
[1] = tested on: light sensitivity of dark adapted rats; experiment: ERG analysis of dark adaptation, dose ranging protocol; assay type: in vivo, rat; settings: i.p.
Method: Dark adaptation is the recovery of visual sensitivity following exposure to light. Dark adaptation has multiple components including both fast (neuronal) processes and slow (photochemical) process. Regeneration of visual pigment is related to the slow photochemical process. Dark adaptation rates are measured for several reasons. Night blindness results from a failure to dark adapt (loss of visual light sensitivity). It is possible to find a safe dose for night vision by measuring drug effects on dark adapted visual light sensitivity.
An electroretinogram (ERG) is used measure dark adaptation under normal vs. drug conditions. ERG is the measurement of the electric field potential emitted by retinal neurons during their response to an experimentally defined light stimulus. More specifically, ERG measures retinal field potentials at the cornea after a flash of light (e.g., 50 ms). Field strengths are 10^2 to 10^3 microvolts, originating in retinal cells.
ERG is a non-invasive measurement which can be performed on either living subjects (human or animal) or a hemisected eye in solution that has been removed surgically from a living animal. […]
The ERG measurement is taken after a specific duration of post-bleach dark recovery (e.g., 30 min) determined previously by kinetic analysis (see FIGS. 6a and 6b). […]

[2] = NMR analysis of RAL reactions (Schiff base condensation and ring formation); assay type: physicochemical; settings: Schiff base condensation with RAL, pure chloroform

Row | Compound | effect on ERG light sensitivity of dark adapted rats ([1]; dose ranging, FIG. 7) | duration of the effect on vision ([1]; rat ERG) | tau (minutes) condense [2]
1 | CCOC(=O)c1cccc(N)c1 [Compound 6, tricaine methane sulfonate] | lowers light sensitivity of dark adapted rats in a dose dependent manner | decreases after 3 hours | 
2 | CC(C)(O)c1nc2ccc(Cl)cc2cc1N [Compound 9] |  |  | 320 min
